Consider ten compounds from ChEMBL document CHEMBL2069232, “Novel structural insights for imidoselenocarbamates with antitumoral activity related to their ability to generate methylselenol” (Bioorg Med Chem, 2012).

Active and inactive are the calls of the source. The rule behind the calls is not given here. Numbered stars: 1 amine (or outer) side, 2 acyl side, 3 side chain; on linkers, the order of the positions; unused ones are H or OH. Bridge positions count the residues as written; N and C are the ends. Square brackets hold non-standard residues; d marks the D form. Peptide text beside a SMILES is read from it. I, II: the chains in the order shown. Actinocin(1to9) = Cc1c2oc3c(C)ccc(C(=O)[*:2])c3nc-2c(C(=O)[*:1])c(N)c1=O; NMeV = CN[C@H](C(=O)O)C(C)C; Sar = CNCC(=O)O

A short description of series [1]: Induction of methylselenol release in pH 8.0 phosphate buffer containing 100 mM Na2PO4, 1 mM EDTA and 100 uM DTNB. Format: physicochemical.
The nature of series [2]: Induction of methylselenol release in phenol-red free RPMI 1640 medium containing 100 uM DTNB. Format: physicochemical.
Series [3] relates to NCI-H157. Briefly: Induction of apoptosis in human NCI-H157 cells at 10 uM incubated for 5 hrs in serum-free medium by annexin V/propidium iodide staining by flow cytometry. The series is classed as functional, cell-based. In general terms: Flow cytometry measures light scatter and fluorescence of single cells or particles in a stream.
The test system of series [4] is NCI-H157. Kind of series: Induction of apoptosis in human NCI-H157 cells assessed as apoptotic cell level at 10 uM incubated for 5 hrs in serum-free medium by annexin V/propidium iodide staining by flow cytometry. Format: functional.
The test system of series [5] is NCI-H157. Kind of series: Induction of apoptosis in human NCI-H157 cells assessed as damaged cell level at 10 uM incubated for 5 hrs in serum-free medium by annexin V/propidium iodide staining by flow cytometry. Format: functional.
In series [6] the test system is NCI-H157. Briefly: Induction of apoptosis in human NCI-H157 cells assessed as necrotic cell level at 10 uM incubated for 5 hrs in serum-free medium by annexin V/propidium iodide staining by flow cytometry. The series is classed as functional.
The test system of series [7] is NCI-H157. Briefly: Induction of apoptosis in human NCI-H157 cells assessed as live cell level at 10 uM incubated for 5 hrs in serum-free medium by annexin V/propidium iodide staining by flow cytometry. The series is classed as functional, cell-based.

In the case of `C[Se]/C(=N/C(=O)c1cccnc1Cl)NC(=O)c1cccnc1Cl`, the t1/2 was 40 h in series [1] and 4.7 h in series [2]. Also, in the series with NCI-H157 [3], the outcome was Active.
Regarding `C[Se]/C(=N/C(=O)c1cccnc1)NC(=O)c1cccnc1`, the Activity is on record as 11% in the series with NCI-H157 [4], 28% with NCI-H157 [5] and 5% with NCI-H157 [6]. Also, the t1/2 in series [1] came to 26 h; in series [2] it was 2.9 h. Besides, the result in the series on NCI-H157 [3] and in the series on NCI-H157 [7] was Active.
Turning to `COc1ccc(C(=O)/N=C(\NC(=O)c2ccc(OC)cc2OC)[Se]C)c(OC)c1`, the result with NCI-H157 [3] was inactive.
As to `C[Se]/C(=N/C(C)=O)NC(C)=O`, the t1/2 in series [1] is 9.2 h; in series [2], 0.82 h. The result in the series on NCI-H157 [3] was Active.
Take `C[Se]/C(=N\C(=O)c1ccccc1)NC(=O)c1ccccc1`: in the series with NCI-H157 [3], the outcome was inactive.
Consider `CS/C(=N/C(=O)c1cccnc1)NC(=O)c1cccnc1`, for which the t1/2 in series [1] was 1333 h; in series [2], 24 h.
For the compound `Cc1c2oc3c(C)ccc(C(=O)N[C@@H]4C(=O)N[C@H](C(C)C)C(=O)N5CCC[C@H]5C(=O)N(C)CC(=O)N(C)[C@@H](C(C)C)C(=O)O[C@@H]4C)c3nc-2c(C(=O)N[C@@H]2C(=O)N[C@H](C(C)C)C(=O)N3CCC[C@H]3C(=O)N(C)CC(=O)N(C)[C@@H](C(C)C)C(=O)O[C@@H]2C)c(N)c1=O` [DACTINOMYCIN] (I: T[dV]P[Sar][NMeV] / II: T[dV]P[Sar][NMeV]; ester I:1-I:C, II:1-II:C; linker I:N-II:N via Actinocin(1to9)), the figures for the Activity with NCI-H157 [4], in the series with NCI-H157 [5] and with NCI-H157 [6] were 9%, 23% and 3%, respectively. For the same compound, in the series with NCI-H157 [7], the result was Active.
For `C[Se]/C(=N\C(=O)c1ccc(C(F)(F)F)cc1)NC(=O)c1ccc(C(F)(F)F)cc1`, the outcome in the series with NCI-H157 [3] was inactive.
On to `CS/C(=N/C(=O)c1cccnc1Cl)NC(=O)c1cccnc1Cl`, for which the t1/2 in series [1] came to 917 h; in series [2] it was 31 h.
For the compound `C[Se]/C(=N\C(=O)c1ccc(C)cc1)NC(=O)c1ccc(C)cc1`, in the series with NCI-H157 [3], the result was inactive.
